Laboratory results as given in paper PMC2263054, “Functional evolution of the vitamin D and pregnane X receptors” (BMC Evolutionary Biology, 2007).
Where a name gives a salt, the structure may show the parent alone.

How the values were obtained:
Assay type in all cases: cell-based
Details in all cases: screening for activators, at least three concentrations of each drug
Zebrafish VDR = molecular target: T1, Zebrafish VDR (Danio rerio, UniProt Q9PTN2); experiment: luciferase reporter transactivation assay in HepG2-NTCP cells, GAL4/zfVDR LBD chimera with tk-UAS-Luc
T1 sequence (Q9PTN2 121-453): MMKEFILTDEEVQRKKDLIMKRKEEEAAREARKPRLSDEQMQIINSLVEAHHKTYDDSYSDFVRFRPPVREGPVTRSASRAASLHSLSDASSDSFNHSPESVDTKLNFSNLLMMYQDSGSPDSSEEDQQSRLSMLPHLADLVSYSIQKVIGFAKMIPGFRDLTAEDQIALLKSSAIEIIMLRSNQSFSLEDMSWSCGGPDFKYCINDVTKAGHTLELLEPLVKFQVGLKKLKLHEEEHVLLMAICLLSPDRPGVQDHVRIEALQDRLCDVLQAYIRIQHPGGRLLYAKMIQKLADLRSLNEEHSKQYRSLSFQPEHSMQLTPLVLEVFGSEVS

Xenopus laevis VDR = molecular target: T2, Xenopus laevis VDR (Xenopus laevis, UniProt O13124); experiment: luciferase reporter transactivation assay in HepG2-NTCP cells, GAL4/xlVDR LBD chimera with tk-UAS-Luc
T2 sequence (O13124 90-422): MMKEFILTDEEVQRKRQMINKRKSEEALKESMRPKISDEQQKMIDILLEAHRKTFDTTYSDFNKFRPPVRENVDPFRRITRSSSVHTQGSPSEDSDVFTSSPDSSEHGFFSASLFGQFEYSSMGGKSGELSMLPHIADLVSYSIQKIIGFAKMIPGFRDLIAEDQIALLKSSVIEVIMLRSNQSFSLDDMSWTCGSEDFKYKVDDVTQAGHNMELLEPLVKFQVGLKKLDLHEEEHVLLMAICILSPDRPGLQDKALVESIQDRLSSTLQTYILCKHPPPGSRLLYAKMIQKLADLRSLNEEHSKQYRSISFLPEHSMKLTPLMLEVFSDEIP

Sea lamprey VDR = molecular target: T3, Sea lamprey VDR (Petromyzon marinus, UniProt Q7ZZY9)
T3 sequence (Q7ZZY9 92-406): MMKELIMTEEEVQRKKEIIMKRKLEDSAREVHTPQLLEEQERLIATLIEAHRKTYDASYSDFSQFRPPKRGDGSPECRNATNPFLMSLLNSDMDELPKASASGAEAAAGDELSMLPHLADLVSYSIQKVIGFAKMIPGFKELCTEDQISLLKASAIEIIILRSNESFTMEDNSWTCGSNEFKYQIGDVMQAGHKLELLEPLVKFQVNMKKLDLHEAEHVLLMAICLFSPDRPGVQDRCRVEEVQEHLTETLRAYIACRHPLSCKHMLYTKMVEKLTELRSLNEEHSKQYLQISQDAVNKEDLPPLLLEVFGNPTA

SMILES | Effect on zebrafish VDR (Zebrafish VDR) | Effect on Xenopus laevis VDR (Xenopus laevis VDR) | Effect on sea lamprey VDR (Sea lamprey VDR)
O=C(O)CCc1cc(I)c(O)c(I)c1 [3,5-Diiodo-4-hydroxyphenylpropionic acid] | No effect | No effect | No effect
CC(=O)[C@H]1[C@H](C#N)C[C@H]2[C@@H]3CC=C4C[C@@H](O)CC[C@]4(C)[C@H]3CC[C@@]21C [Pregnenolone-16a-carbonitrile] | No effect | No effect | No effect
CC(=O)OC/C=C(C)/C=C/C=C(C)/C=C/C1=C(C)CCCC1(C)C [Retinyl acetate] | No effect | No effect | No effect
CC(C)=CCC[C@@H](C)[C@H]1CC[C@@]2(C)[C@@H]3CC[C@H]4C(C)(C)[C@@H](O)CC[C@@]45C[C@@]35CC[C@]12C [Cycloartenol] | No effect | No effect | No effect
C[C@H](O)[C@H]1CC[C@H]2[C@@H]3CC[C@@H]4C[C@H](O[C@@H]5O[C@H](C(=O)O)[C@@H](O)[C@H](O)[C@H]5O)CC[C@]4(C)[C@H]3CC[C@]12C [Pregnanediol glucuronide] | No effect | No effect | No effect
C[C@]12CCC(=O)C=C1CC[C@@H]1[C@@H]2[C@@H](O)C[C@]2(C=O)[C@@H](C(=O)CO)CC[C@@H]12 [Aldosterone] | No effect | No effect | No effect
CCCCC/C=C/C=C1/C(=O)C=C[C@@H]1C/C=C\CCCC(=O)O [15-Deoxy-D12,14-prostaglandin J2] | No effect | No effect | No effect
CC1=C(/C=C/C(C)=C\C=C\C(C)=C\C(=O)O)C(C)(C)CCC1 [9-cis Retinoic acid] | No effect | No effect | No effect
C[C@@]12C=CC[C@H]1[C@@H]1CCC3=CC(=O)CC[C@]3(C)[C@H]1CC2 [4,16-Androstadien-3-one] | No effect | No effect | No effect
CC(C)CCC[C@@H](C)[C@H]1CC[C@H]2[C@@H]3CC[C@H]4C[C@@H](OS(=O)(=O)O)CC[C@]4(C)[C@H]3CC[C@]12C [5a-cholestan-3b-ol sulfate] | No effect | No effect | No effect
C[C@]12CC[C@H](OS(=O)(=O)O)CC1=CC[C@@H]1[C@@H]2CC[C@]2(C)C(=O)CC[C@@H]12 [DHEA sulfate] | No effect | No effect | No effect
O=S(=O)(c1ccccc1)N(CC(F)(F)F)c1ccc(C(O)(C(F)(F)F)C(F)(F)F)cc1 [T-0901317] | None of these three VDRs were activated | None of these three VDRs were activated | None of these three VDRs were activated
CC(CCC(=O)NCC(=O)O)C1CCC2C3C(O)CC4CC(O)CCC4(C)C3CCC12C (stereo not drawn) [Glycochenodeoxycholic acid] | No effect | No effect | No effect
C[C@]12CC[C@@H]3c4cc(O)c(O)cc4CC[C@H]3[C@@H]1CCC2=O [2-Hydroxyestrone] | No effect | No effect | No effect
C[C@@]12C=CC[C@H]1[C@@H]1CC=C3C[C@@H](O)CC[C@]3(C)[C@H]1CC2 [5,16-Androstadien-3b-ol] | No effect | No effect | No effect
CC(C)CCC[C@@H](C)[C@H]1CC[C@H]2C3=CC[C@H]4C[C@@H](O)CC[C@]4(C)[C@H]3CC[C@]12C [Lathosterol] | No effect | No effect | No effect
Cc1cccc(Nc2cc(Cl)nc(SCC(=O)O)n2)c1C [WY-14643] | No effect | No effect | No effect

SMILES | Effect on zebrafish VDR (Zebrafish VDR) | Effect on Xenopus laevis VDR (Xenopus laevis VDR) | Effect on sea lamprey VDR (Sea lamprey VDR)
CC(CO)CCC[C@@H](C)[C@H]1[C@H](O)C[C@H]2[C@@H]3[C@H](O)C[C@H]4C[C@H](O)CC[C@]4(C)[C@H]3CC[C@]12C (stereo partly drawn) [5a-Cholestan-3a,7a,16a,27-tetrol] | No effect | No effect | No effect
Clc1ccccc1C(c1ccccc1)(c1ccccc1)n1ccnc1 [Clotrimazole] | No effect | No effect | No effect
C[C@]12CCC(=O)C=C1CC[C@@H]1[C@@H]2[C@@H](O)C[C@@]2(C)[C@H]1CC[C@]2(O)C(=O)CO [Cortisol] | No effect | No effect | No effect
CCCCCCCCCCCCCCSCC(=O)O [Tetradecylthioacetic acid] | No effect | No effect | No effect
CC(C)=CCC/C(C)=C/CC/C(C)=C/CC/C(C)=C/CO [Geranygeraniol] | No effect | No effect | No effect
COc1c(C)c2c(c(O)c1C/C=C(\C)CCC(=O)O)C(=O)OC2 [Mycophenolic acid] | No effect | No effect | No effect
C[C@H](CCCO)[C@H]1CC[C@H]2[C@@H]3[C@H](O)C[C@@H]4C[C@H](O)CC[C@]4(C)[C@H]3C[C@H](O)[C@]12C [5b-Cholan-3a,7a,12a,24-tetrol] | No effect | No effect | No effect
C[C@]12CC[C@@H](O)C[C@@H]1CC[C@@H]1[C@@H]2CC[C@]2(C)C(=O)CC[C@@H]12 [Androsterone] | No effect | No effect | No effect
CC(C)(Oc1ccc(Cl)cc1)C(=O)O [Clofibric acid] | No effect | No effect | No effect
C[C@H](CCC(=O)NCCS(=O)(=O)O)[C@H]1CC[C@H]2[C@@H]3CC[C@@H]4C[C@H](OS(=O)(=O)O)CC[C@]4(C)[C@H]3CC[C@]12C [Taurolithocholic acid 3-sulfate] | No effect | No effect | No effect
C[C@H](CCC(=O)NCC(=O)O)[C@H]1CC[C@H]2[C@@H]3CC[C@@H]4C[C@H](O)CC[C@]4(C)[C@H]3C[C@H](O)[C@]12C.O [Glycodeoxycholic acid monohydrate] | No effect | No effect | No effect
CC1=C(/C=C/C(C)=C/C=C/C(C)=C\CO)C(C)(C)CCC1 [13-cis-Retinol] | No effect | No effect | No effect
C[C@]12CC[C@H](O)C[C@@H]1CC[C@@H]1[C@@H]2CC[C@]2(C)C(=O)CC[C@@H]12 [5a-androstan-3b-ol-17-one] | No effect | No effect | No effect
C[C@]12CC[C@@H](O)C[C@H]1CC[C@@H]1[C@@H]2C(=O)C[C@@]2(C)[C@H]1CC[C@]2(O)[C@@H](O)CO [Cortolone] | No effect | No effect | No effect
CCCc1c(OCCCCc2nnn[nH]2)ccc(C(C)=O)c1O [LY 171883] | No effect | No effect | No effect
C=CC[C@@H]1[C@H](O)CC[C@@]2(C)[C@H]1CC[C@@H]1[C@@H]2CC[C@]2(C)[C@@H]([C@H](C)CCCC(C)C)CC[C@@H]12 [LY 295427] | No effect | No effect | No effect
